91 compounds from PubChem BioAssay AID1259342 (Broad Institute, 2017) can be followed below.

Activity calls are given as the source filed them.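 How the source made its calls: active means fitted half-maximal inhibitory concentration AC50 at most ten times the top concentration tested; inconclusive means flat fit with 30 to 70% inhibition, or unusable fit; inactive means AC50 above ten times the top concentration.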

In one experiment the target is E3 ubiquitin-protein ligase TRIM62 (Homo sapiens) (UniProt Q9BVG3). Kind of experiment: inhibitors of TRIM62-driven CARD9 ubiquitylation, dose response, CARD9-TRIM62 disruptor project, biochemical, ubiquitin ELISA, AlphaLISA TUBE (AID 1259342).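 On AC50: potency is for inhibitors that reduce CARD9 ubiquitylation signal.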 The following applies: TRIM62-mediated CARD9 ubiquitylation, AlphaLISA TUBE detection. In general terms: ELISA stands for enzyme-linked immunosorbent assay.
E3 ubiquitin-protein ligase TRIM62 (Homo sapiens), sequence (Q9BVG3 whole entry, looked up): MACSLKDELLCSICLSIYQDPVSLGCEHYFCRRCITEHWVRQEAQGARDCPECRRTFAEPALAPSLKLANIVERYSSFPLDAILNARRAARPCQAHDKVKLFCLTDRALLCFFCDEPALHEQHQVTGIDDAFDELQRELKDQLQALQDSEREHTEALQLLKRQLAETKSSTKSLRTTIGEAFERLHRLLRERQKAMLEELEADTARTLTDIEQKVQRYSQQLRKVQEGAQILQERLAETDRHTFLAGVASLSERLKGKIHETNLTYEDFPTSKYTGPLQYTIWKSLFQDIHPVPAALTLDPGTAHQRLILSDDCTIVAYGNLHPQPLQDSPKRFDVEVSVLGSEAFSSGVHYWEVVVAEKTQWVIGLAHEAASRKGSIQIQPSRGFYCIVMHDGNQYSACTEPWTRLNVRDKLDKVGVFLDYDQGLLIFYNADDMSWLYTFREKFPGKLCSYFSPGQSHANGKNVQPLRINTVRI
Usually AC50 stands for the concentration at which the activity in the assay is half-maximal. As to `O=S(=O)(Nc1nccs1)c1ccc(-n2cccc2)cc1`, the AC50 was 17.4 µM.
On to `COCCn1c(C)cc(-c2csc(N)n2)c1C`, for which the concentration at half-maximal activity (AC50) was 68.3 µM.
With `COc1ccc(NC(=O)c2nc(Nc3ccccc3)c3ccccc3n2)cc1`, the half-maximal activity concentration (AC50) was 67.8 µM.
Consider `CCOC(=O)c1[nH]c(Cc2[nH]c(C(=O)OCC)c(C)c2C)c(C)c1C`, for which the AC50 is > 160 µM (inactive).
Take `O=C(O)Cc1c[nH]c2cccc(O)c12`: the AC50 was 0.921 µM.
With `Cc1ccc(-c2cc(C(=O)Nc3ccccn3)c3ccccc3n2)o1`, the AC50 was 60.9 µM.
Still for that read-out and setting: then `CCCC(=O)NCc1ccc2c(c1)cc(C)n2C`, with > 160 µM (inactive).
Take `O=C(Nc1nc(-c2ccco2)c(-c2ccco2)s1)C1CCC1`: the AC50 was 6.56 µM.
Take `CCC1c2ccc(C)n2CCN1C(=O)Nc1ccccc1C(=O)OC` (stereo unspecified): the AC50 was 72.5 µM.
Take `Cc1cccc(NC(=O)Cc2coc3ccc4ccccc4c23)n1`: the half-maximal activity concentration (AC50) was 70 µM.
As to `O=C(Nc1nc(-c2ccco2)c(-c2ccco2)s1)c1ccc(F)cc1F`, the AC50 is > 160 µM (inactive).
On to `Nc1cc2c(cc1O)CCCC2`, for which the AC50 was 49.4 µM.
In the case of `Cc1ccc(C)n1NC(=O)c1ccccc1O`, the AC50 was 13.5 µM.
As to `O=C(O)c1ccc2nc(-c3ccco3)c(-c3ccco3)nc2c1`, the AC50 is 11.8 µM.
As for `NC(=O)C1(N2CCCCC2)CCN(c2ncc(NC(=O)c3ccccc3)cc2C(=O)O)CC1`, the concentration at half-maximal activity (AC50) is 6.61 µM.
On to `N#Cc1c(N)oc(-c2ccco2)c1-c1ccco1`, for which the AC50 is 29.6 µM.
Turning to `C=CC(=O)N1CCCC2(CCN(CCN3CCCC3)C2=O)C1` (stereo unspecified), the AC50 was 50.8 µM.
The same measure, in the same setting: then `O=[N+]([O-])c1ccc2nn(Cc3ccccc3)cc2c1`, with > 160 µM (inactive); and `O=S(=O)(Nc1nc2ccc(S(=O)(=O)N3CCCCC3)cc2s1)c1ccccc1`, with 42.2 µM.
Turning to `COc1ccc(S(=O)(=O)N2CCOCC2)cc1NC(=O)c1cccc(-n2cccc2)c1`, the AC50 is 3.62 µM.
As to `CC1=CCC(C(=O)O)C(C(=O)NC2CCCCC2)C1` (stereo unspecified), the AC50 was 47.4 µM.
Take `CC(=O)c1sc2nc(-c3ccco3)ccc2c1N`: the AC50 is 24.5 µM.
Consider `N#Cc1c(NC(=O)CSc2nc3ccccc3o2)sc2c1CCC2`, for which the concentration at half-maximal activity (AC50) is 74.1 µM.
With `O=C(COC(=O)CCC(=O)c1cccs1)NCc1ccco1`, the half-maximal activity concentration (AC50) was 16.6 µM.
Turning to `O=c1oc(-c2ccccc2)nc2sc3c(c12)CCC3`, the AC50 was > 160 µM (inactive).
For the compound `O=C(Cn1c(=O)cc(C(=O)N2CCc3ccccc3C2)c2ccccc21)NCc1ccc2c(c1)OCO2`, the AC50 was 11.8 µM.
As for `CCOc1cc2c(C#N)c(N3CCNCC3)nc(N)c2c(N)n1`, the AC50 is > 160 µM (inactive).
Regarding `CC(=O)Nc1ccc(Nc2nc(-c3nnc(-c4cccc(C)c4)o3)nc3ccccc23)cc1`, the half-maximal activity concentration (AC50) is 19 µM.
On to `O=C1CS/C(=N\N=C\c2ccco2)N1c1ccccc1`, for which the AC50 was 22.2 µM.
For the compound `CCc1cc2c(=O)n(Cc3ccco3)c(SC)nc2s1`, the AC50 was > 160 µM (inactive).
The same measure, in the same setting: then `O=S(=O)(c1ccc2nc(-c3ccco3)c(-c3ccco3)nc2c1)N1CCOCC1`, with 31.1 µM; and `O=C(Nc1nc(-c2ccco2)c(-c2ccco2)s1)c1ccco1`, with 4.63 µM; and `O=c1oc(/C=C/c2ccc([N+](=O)[O-])s2)nc2ccccc12`, with > 160 µM (inactive).
Take `Cc1nc(C)c(C(=O)Nc2ncc([N+](=O)[O-])s2)o1`: the half-maximal activity concentration (AC50) was 3.96 µM.
Turning to `NC(=O)C1(N2CCCCC2)CCN(c2ncc(NC(=O)c3cccc(Cl)c3)cc2C(=O)O)CC1`, the AC50 was 14.2 µM.
Regarding `O=C(O)COc1ccc(-n2cccc2)cc1`, the concentration at half-maximal activity (AC50) was 14.7 µM.
Still for that read-out and setting: under `O=C(CN1CCN(c2ccccc2O)CC1)NC(=O)NC1CCCC1` stands > 160 µM (inactive); under `CC1CCN(c2nc(-c3ccco3)c3c(c2C#N)CC(C)(C)OC3)CC1`, 17.6 µM.
With `Cc1sc2ncnc(SCc3ccco3)c2c1C`, the AC50 is 56.6 µM.
Consider `CC(=O)Nc1ccc2nc3c(=O)n(C)c(=O)n(C)c3nc2c1`, for which the AC50 was 48.2 µM.

The experiment is the same for the next values; noted with them: TRIM62-mediated CARD9 ubiquitylation, AlphaLISA TUBE detection; at 38 µM (top of the series).
Consider `O=C(Nc1nc(-c2nc3ccccc3s2)cs1)c1ccco1`, for which the “activity change, negative = inhibition” value is “inactive”.
For the compound `Cc1ccc(C)n1Nc1nc(O)cs1`, the “activity change, negative = inhibition” value was “inactive”.
The same measure, in the same setting: then `NC(=O)C1(N2CCCCC2)CCN(c2ncc(NC(=O)c3ccc(F)cc3)cc2C(=O)O)CC1`, with “inactive”.
For `O=C(Nc1nc(-c2ccccn2)cs1)c1cccc(-n2cnnn2)c1`, the “activity change, negative = inhibition” value was “inactive”.

The experiment is the same for the next values; noted with them: TRIM62-mediated CARD9 ubiquitylation, AlphaLISA TUBE detection; at 80 µM (top of the series).
With `O=C(CCn1cncn1)N1CCC(n2cc(-c3ccccn3)nn2)CC1`, the “activity change, negative = inhibition” value was “inactive”.
As to `Cc1ccc(Nc2nc(C(=O)Nc3ccc(Cl)cc3)nc3ccccc23)cc1`, the “activity change, negative = inhibition” value is “inactive”.
For the compound `Cc1ccc2c(c1)C(N1CCCC1=O)CC(c1ccco1)N2` (stereo unspecified), the “activity change, negative = inhibition” value was “inactive”.
On the same count and under the same terms, under `Cc1[nH]c2ccc(Cl)cc2c(=O)c1CN1CCCC1` stands “inactive”; under `CCN1CCOC(=O)C1CC(=O)Nc1cccc(C)c1` (stereo unspecified), “inactive”; under `O=C(NC(Sc1ncccn1)C(=O)c1ccccc1)c1ccccc1` (stereo unspecified), “inactive”.
The same measure, in the same setting: then `FC(F)(F)c1cc(Cl)c2nnc(C(F)(F)Cl)n2c1`, with “inactive”.
As to `Cc1cc(C(=O)NCc2ccco2)on1`, the “activity change, negative = inhibition” value was “inactive”.
The same measure, in the same setting: under `CCSCCNC(=O)c1cncc(Br)c1` stands “inactive”; under `CCN1CCN(C(=O)c2cc(-c3ccco3)nc3ccccc23)CC1`, “inactive”.
For the compound `N#CNc1nc(O)cc(=O)[nH]1`, the “activity change, negative = inhibition” value was “inactive”.
For the compound `Fc1ccc(CSc2nnc(-c3cccnc3)n2Cc2ccco2)cc1`, the “activity change, negative = inhibition” value was “inactive”.
Turning to `O=C(Nc1ccc2oc(-c3ccncc3)nc2c1)c1ccc2c(c1)OCCO2`, the “activity change, negative = inhibition” value is “inactive”.
Still for that read-out and setting: then `NC(=O)C1(N2CCCCC2)CCN(c2ccc(NC(=O)c3ccccc3F)cc2C(=O)O)CC1`, with “inactive”; and `O=C(Nc1ccc2c(c1)nc1n2CCN(C2CCCCC2)C1)c1ccco1`, with “inactive”.
With `O=C1c2cccnc2C(=O)N1Cc1ccc(S(=O)(=O)NCc2ccco2)cc1`, the “activity change, negative = inhibition” value was “inactive”.
With `O=C(NC1(C(F)(F)F)Oc2ccc(Cl)cc2O1)N1CCC2(CC1)OCCO2` (stereo unspecified), the “activity change, negative = inhibition” value is “inactive”.
As to `O=C(NCc1ccco1)C1CCCN(S(=O)(=O)c2cccc3nonc23)C1` (stereo unspecified), the “activity change, negative = inhibition” value is “inactive”.
Regarding `C=CCNc1ncnc2c1CCN(C(=O)c1ccc(CSC)o1)CC2`, the “activity change, negative = inhibition” value is “inactive”.
For `CC1(C)Cc2c(c(N3CCOCC3)nc3sc(C(=O)NCc4ccco4)c(N)c23)CO1`, the “activity change, negative = inhibition” value was “inactive”.
Same read-out and setting: then `Cc1c(/C=C/c2nc3ccccc3c(=O)n2-c2ccccn2)c2ccccc2n1C`, with “inactive”.
With `COCC(=O)N1CCCC2(CCN(CCN3CCCC3)C2=O)C1` (stereo unspecified), the “activity change, negative = inhibition” value is “inactive”.
On to `CN(Cc1ccco1)S(=O)(=O)c1nnc(NC(=O)c2ccccc2)s1`, for which the “activity change, negative = inhibition” value was “inactive”.
With `N#Cc1c2ccc(OCC(=O)NCc3ccco3)cc2n2ccccc12`, the “activity change, negative = inhibition” value was “inactive”.
On to `O=C(CN1CCOC1=O)N1CCC2(CCC(=O)N(CCCn3ccnc3)C2)CC1`, for which the “activity change, negative = inhibition” value is “inactive”.
For the compound `N#Cc1c(-c2ccco2)cc(-c2cccnc2)nc1N`, the “activity change, negative = inhibition” value was “inactive”.
On the same count and under the same terms, then `COc1ccc(CNC(=O)c2nc(Nc3ccc(C)cc3)c3ccccc3n2)cc1`, with “inactive”; and `CC(C(=O)N1CCCC1)N1CCN(c2ccccc2O)CC1` (stereo unspecified), with “inactive”; and `C(=N\n1cnnc1SCc1ccccc1)/c1ccco1`, with “inactive”.
For the compound `CCOC(=O)/C=C/S(=O)(=O)c1ccc(NC(C)=O)cc1`, the “activity change, negative = inhibition” value was “inactive”.
As to `O=C(CCN1CCOCC1)c1ccc2c(c1)OCCO2`, the “activity change, negative = inhibition” value is “inactive”.
Take `Cn1ncc2c(NNC(=O)c3cc(O)cc(O)c3)ncnc21`: the “activity change, negative = inhibition” value is “inactive”.
As to `O=C(Nc1ccon1)c1cc2cccnc2n(Cc2ccccc2)c1=O`, the “activity change, negative = inhibition” value was “inactive”.
The same measure, in the same setting: under `N#Cc1c2c(c(NCc3ccco3)n3c1nc1ccccc13)CCC2` stands “inactive”; under `Cc1ccc(C2CC(=O)C3=C(C2)Nc2ccccc2NC3c2cccnc2)cc1` (stereo unspecified), “inactive”; under `COCC(=O)n1nc(-c2ccco2)nc1NCc1cccs1`, “inactive”.
For `CCOC(=O)C1CCN(C(=O)CN(Cc2ccccc2)S(C)(=O)=O)CC1`, the “activity change, negative = inhibition” value was “inactive”.
The same measure, in the same setting: under `O=C(NCc1ccco1)[C@@H]1CSC2c3ccccc3C(=O)N21` (stereo partly specified) stands “inactive”.
`CC(CCc1ccco1)N(C)S(=O)(=O)c1ccc2[nH]c(=O)ccc2c1` (stereo unspecified): the “activity change, negative = inhibition” value was “inactive”.
Take `CCc1oc2ccccc2c1C(=O)CCN1CCCCC1`: the “activity change, negative = inhibition” value is “inactive”.
Regarding `O=C(Nc1ccc(OCC(=O)N2CCOCC2)cc1)c1cncc(Br)c1`, the “activity change, negative = inhibition” value is “inactive”.
As for `O=C(Nc1cccc2ccccc12)NC1CC1`, the “activity change, negative = inhibition” value is “inactive”.
Turning to `COCCC(=O)N1CCCC2(CCN(CCN3CCCC3)C2=O)C1` (stereo unspecified), the “activity change, negative = inhibition” value is “inactive”.
Still for that read-out and setting: then `CCCN1CCCn2nc(CNC(=O)[C@H]3CC[C@@H](N)C3)cc2C1`, with “inactive”.
For `NC(=O)C1(N2CCCCC2)CCN(c2ccc(NC(=O)c3cccc(Cl)c3)cc2C(=O)O)CC1`, the “activity change, negative = inhibition” value is “inactive”.
Turning to `O=C(NCCc1ccccc1)c1cc2cccnc2n(Cc2ccccc2)c1=O`, the “activity change, negative = inhibition” value was “inactive”.
For `CCc1nccn1CCC(=O)N1C[C@H](CO)C[C@H](CN2CCCC2)C1`, the “activity change, negative = inhibition” value is “inactive”.
